From US20250296953A1, “3,4-THIAZOLO-STEROIDS AND METHODS OF MAKING AND USING THE SAME” (Arkansas State University - Jonesboro, priority 2018, published 2025)
Where two headings read alike, the source gives them in different places.

Assays:
Assay in all cases: Melanoma cytotoxicity assay (resazurin)
Assay type in all cases: cell-based
[1] = tested on: SK-MEL-28; details: for SK-MEL-28 (% inhibition) / IC50: SK-MEL-28 melanoma cells, resazurin; for SK-MEL-28 (% inhibition): 24 hours with compound, concentration not given; for SK-MEL-28 (% viability): human, 24 h; for IC50: Homo sapiens, 24 hours
Experimental: (§1) Cytotoxicity Assay: Melanoma cells (˜4000 cells in each well) were incubated in a 96 well plates at 37° C. in 5% CO2 for 24 hours. Compounds were added in triplicates and the plate was further incubated for 24 hours. DMSO and dacarbazine were added as technical and positive controls respectively. Next day resazurin was added and the plate was further incubated for 6 hours followed by reading the plate at 544 nm (excitation) and 590 nm (emission) using BMG Labtech Fluostar Optima plate reader. IC50 values were determined by using Graphpad Prism.
(§2) On day 1, the cell line trypsinized and centrifuged to form cell pellet. The pellet was diluted in media, then counted using Countess automated cell counter. Approximately 4000 cells (198 uL) per well plated in […]. A control well of 200 uL growth media was also prepared. Wells closest to plate perimeter were filled with 200 uL PBS to prevent inner well evaporation. The 96 well plates are incubated in 37° C. incubator at 5% CO2 for 24 hours.
(§3) On day 2, compounds were added (in triplicate) along with DMSO/Dacarbazine controls (2 uL) added to bring wells to volume of 200 μL. The 96 well plates are incubated in 37° C. incubator at 5% CO2 for 24 hours.
(§4) On day 3, 40 μL of 0.15 mg/ml reszurin solution added to wells. Samples were placed in a 37° C. incubator at 5% CO2 for 6 hours. Excitation and emission for fluorescence measured at 544 nm and 590 nm using BMG Labtech Fluostar Optima plate reader
(§5) Percent viability determined by taking average of each triplicate well fluorescence and subtracting GM well reading to remove the background signal. This difference is then divided by the average of the negative control (DMSO) wells to determine percent viability.
(§6) IC50s were determined by using cereal dilution of compound to determine viability. Viabilities and concentration of cells are analyzed in Graphpad Prism by creating sigmoidal curve graph, which will determine the IC50 concentration.
(§7) We analyzed the ability of the thiazole-androstane derivatives to inhibit growth in various melanoma cell lines. The growth inhibition against melanoma cell lines of various compound is shown below in Tables 19 and 20. Inhibition results are reported as the IC50 concentration in μM of the indicated compound or as the percent viability […] of the indicated compound. NA=not available.

[2] = tested on: SK-MEL-25; details: for SK-MEL-25 (% inhibition): 24 hours with compound, concentration not given; for SK-MEL-25 (% viability): human, 24 h; for IC50: Homo sapiens
Experimental: as §1, §2, §3, §4, §5, §6, §7

[3] = tested on: LOX IMVI; details: for LOX-IMVI (% inhibition) / IC50: LOX IMVI melanoma cells; for LOX-IMVI (% inhibition): 24 hours with compound, concentration not given; for LOX-IMVI (% viability): human, 24 h; for IC50: Homo sapiens
Experimental: as §1, §2, §3, §4, §5, §6, §7

[4] = tested on: SK-MEL-5; details: for SK-MEL-5 (% inhibition): SK-MEL-5 melanoma cells, 24 hours with compound, resazurin, concentration not given; for SK-MEL-5 (% viability): human, 24 h
Experimental: as §1, §2, §3, §4, §5, §6, §7

[5] = tested on: MALME-3M; details: human, 24 h
Experimental: as §2, §3, §4, §5, §6, §7

[6] = SK-MEL-25 melanoma cells, resazurin
[7] = SK-MEL-25 melanoma cells (head prints SK-25), read-out: SK-25 IC50
[8] = SK-MEL-25 melanoma cells, 24 hours, resazurin, read-out: SK-MEL-25 (IC50)

C[C@]12CCc3nc(Cc4ccccc4)sc3C1=CC[C@@H]1[C@@H]2CC[C@]2(C)C(=O)CC[C@@H]12 [II.2]
SK-MEL-28 (% inhibition) [1]: 98%
SK-MEL-25 (% inhibition) [2, 6]: 69%
LOX-IMVI (% inhibition) ([3]; resazurin): 17%
SK-MEL-5 (% inhibition) [4]: 77%

C[C@]12CCc3nc(-c4ccc(O)cc4)sc3C1=CC[C@@H]1[C@@H]2CC[C@]2(C)C(=O)CC[C@@H]12 [II.4, (1S,2R,13R,14S,18S)-7-(4-hydroxy)-2,18-dimethyl-8-thia-6-azapentacyclo[11.7.0.02,10.05,9.014,18]icosa-5(9),7,10-trien-17-one]
LOX-IMVI (% inhibition) ([3]; resazurin): 16%

COc1cccc(-c2nc3c(s2)C2=CC[C@@H]4[C@H](CC[C@]5(C)C(=O)CC[C@@H]45)[C@@]2(C)CC3)c1 [II.9, (1S,2R,13R,14S,18S)-7-(3-methoxyphenyl)-2,18-dimethol-8-thia-6-azapentacyclo[11.7.0.02,10.05,9.014,18]icosa-5(9),7,10-trien-17-one]
LOX-IMVI (% inhibition) ([3]; resazurin): 13%

C[C@]12CCc3nc(-c4ccccc4O)sc3C1=CC[C@@H]1[C@@H]2CC[C@]2(C)C(=O)CC[C@@H]12 [II.11]
LOX-IMVI (% inhibition) ([3]; resazurin): 35%

C[C@]12CCc3nc(-c4cccc(O)c4)sc3C1=CC[C@@H]1[C@@H]2CC[C@]2(C)C(=O)CC[C@@H]12 [II.17, (1S,2R,13R,14S,18S)-7-(3-hydroxy)-2,18-dimethyl-8-thia-6-azapentacyclo[11.7.0.02,10.05,9.014,18]icosa-5(9),7,10-trien-17-one]
LOX-IMVI (% inhibition) ([3]; resazurin): 17%

CCOc1cccc(-c2nc3c(s2)C2=CC[C@@H]4[C@H](CC[C@]5(C)C(=O)CC[C@@H]45)[C@@]2(C)CC3)c1 [II.23]
LOX-IMVI (% inhibition) ([3]; resazurin): 52%

C[C@]12CCc3nc(-c4cc(Cl)cc(Cl)c4)sc3C1=CC[C@@H]1[C@@H]2CC[C@]2(C)C(=O)CC[C@@H]12 [II.25]
LOX-IMVI (% inhibition) ([3]; resazurin): 89%

CNc1nc2c(s1)C1=CC[C@H]3[C@@H]4CC[C@H](O)[C@@]4(C)CC[C@@H]3[C@@]1(C)CC2 [IIIa.2, (1S,2R,13R,14S,17S,18S)-2,18-dimethyl-7-(methylamino)-8-thia-6-azapentacyclo[11.7.0.02,10.05,9.014,18]icosa-5(9),6,10-trien-17-ol]
SK-MEL-28 (% viability) [1]: 1.9%
SK-MEL-25 (% viability) [2]: 6.21%
LOX-IMVI (% viability) [3]: 14%
SK-MEL-5 (% viability) [4]: 2.02%
MALME-3M (% viability) [5]: 59.51%

CCNc1nc2c(s1)C1=CC[C@H]3[C@@H]4CC[C@H](O)[C@@]4(C)CC[C@@H]3[C@@]1(C)CC2 [IIIa.3, (1S,2R,13R,14S,17S,18S)-7-(ethylamino)-2,18-dimethyl-8-thia-6-azapentacyclo[11.7.0.02,10.05,9.014,18]icosa-5(9),6,10-trien-17-ol]
SK-MEL-28 (% viability) [1]: 2.00%
SK-MEL-25 (% viability) [2]: 5.06%
IC50 [3]: > 20 µM
LOX-IMVI (% viability) [3]: 6%
SK-MEL-5 (% viability) [4]: 2.46%
MALME-3M (% viability) [5]: 51.83%

CCCCNc1nc2c(s1)C1=CC[C@H]3[C@@H]4CC[C@H](O)[C@@]4(C)CC[C@@H]3[C@@]1(C)CC2 [IIIa.4, (1S,2R,13R,14S,17S,18S)-7-(butylamino)-2,18-dimethyl-8-thia-6-azapentacyclo[11.7.0.02,10.05,9.014,18]icosa-5(9),6,10-trien-17-ol]
SK-MEL-28 (% viability) [1]: 1.69%
IC50 [2, 7]: 16 µM
SK-MEL-25 (% viability) [2]: 2.63%
IC50 [3]: 7.67 µM
LOX-IMVI (% viability) [3]: 2%
SK-MEL-5 (% viability) [4]: 2.1%
MALME-3M (% viability) [5]: 4.96%

C[C@]12CC[C@H]3[C@@H](CC=C4c5sc(NCCc6ccccc6)nc5CC[C@@]43C)[C@@H]1CC[C@@H]2O [IIIa.5, (1S,2R,13R,14S,17S,18S)-2,18-dimethyl-7-(2-phenylethylamino)-8-thia-6-azapentacyclo[11.7.0.02,10.05,9.014,18]icosa-5(9),6,10-trien-17-ol]
SK-MEL-28 (% viability) [1]: 4.28%
SK-MEL-25 (% viability) [2]: 9.39%
IC50 [3]: 11 µM
LOX-IMVI (% viability) [3]: 10%
SK-MEL-5 (% viability) [4]: 3.49%
MALME-3M (% viability) [5]: 55.63%

CC(=O)Nc1nc2c(s1)C1=CC[C@H]3[C@@H]4CC[C@H](O)[C@@]4(C)CC[C@@H]3[C@@]1(C)CC2 [IIIa.37, N-[(1S,2R,13R,14S,17S,18S)-17-hydroxy-2,18-dimethyl-8-thia-6-azapentacyclo[11.7.0.02,10.05,9.014,18]icosa-5(9),6,10-trien-7-yl]acetamide]
SK-MEL-28 (% viability) [1]: 62.56%
IC50 [2, 7]: > 20 µM
SK-MEL-25 (% viability) [2]: 39.57%
SK-MEL-5 (% viability) [4]: 48.52%
MALME-3M (% viability) [5]: 104.91%

C[C@]12CCc3sc(Nc4ccccc4Cl)nc3C1=CC[C@@H]1[C@@H]2CC[C@]2(C)C(=O)CC[C@@H]12 [IIa.11, (1S,2R,13R,14S,18S)-7-(2-chloroanilino)-2,18-dimethyl-6-thia-8-azapentacyclo[11.7.0.02,10.05,9.014,18]icosa-5(9),7,10-trien-17-one]
IC50 [1]: > 20 µM
SK-MEL-28 (% inhibition) [1]: 88%
IC50 [2, 8]: 9 µM
SK-MEL-25 (% inhibition) [2, 6]: 96%
IC50 ([3]; 24 hours, resazurin): 12 µM
SK-MEL-5 (% inhibition) [4]: 84%

CCCCNC1=NC2C3=CC[C@@H]4[C@H](CC[C@]5(C)C(=O)CC[C@@H]45)[C@@]3(C)CCC2S1 (stereo partly drawn) [IIa.31, (1S,2R,13R,14S,18S)-7-(butylamino)-2,18-dimethyl-6-thia-8-azapentacyclo[11.7.0.02,10.05,9.014,18]icosa-7,10-dien-17-one]
SK-MEL-28 (% inhibition) [1]: 93%
SK-MEL-25 (% inhibition) [2, 6]: 74%
SK-MEL-5 (% inhibition) [4]: 69%

Cc1ccc(Nc2nc3c(s2)CC[C@@]2(C)C3=CC[C@@H]3[C@@H]2CC[C@]2(C)C(=O)CC[C@@H]32)cc1 [IIa.32, (1S,2R,13R,14S,18S)-2,18-dimethyl-7-(4-methylanilino)-6-thia-8-azapentacyclo[11.7.0.02,10.05,9.014,18]icosa-5(9),7,10-trien-17-one]
IC50 [1]: > 20 µM
SK-MEL-28 (% inhibition) [1]: 63%
IC50 [2, 8]: 5 µM
SK-MEL-25 (% inhibition) [2, 6]: 87%
IC50 ([3]; 24 hours, resazurin): 9 µM

C[C@]12CCc3sc(Nc4ccccc4F)nc3C1=CC[C@@H]1[C@@H]2CC[C@]2(C)C(=O)CC[C@@H]12 [IIa.33, (1S,2R,13R,14S,18S)-7-(2-fluoroanilino)-2,18-dimethyl-6-thia-8-azapentacyclo[11.7.0.02,10.05,9.014,18]icosa-5(9),7,10-trien-17-one]
SK-MEL-28 (% inhibition) [1]: 66%
SK-MEL-25 (% inhibition) [2, 6]: 77%
SK-MEL-5 (% inhibition) [4]: 87%

C[C@]12CCc3sc(Nc4cccc(C(=O)O)c4)nc3C1=CC[C@@H]1[C@@H]2CC[C@]2(C)C(=O)CC[C@@H]12 [IIa.34, 3-[[(1S,2R,13R,14S,18S)-2,18-dimethyl-17-oxo-6-thia-8-azapentacyclo[11.7.0.02,10.05,9.014,18]icosa-5(9),7,10-trien-7-yl]amino]benzoic acid]
SK-MEL-28 (% inhibition) [1]: 73%
SK-MEL-25 (% inhibition) [2, 6]: 59%
SK-MEL-5 (% inhibition) [4]: 80%

CC(=O)Nc1nc2c(s1)C1=CC[C@@H]3[C@H](CC[C@]4(C)C(=O)CC[C@@H]34)[C@@]1(C)CC2 [IIb.1, N-[(1S,2R,13R,14S,18S)-2,18-dimethyl-17-oxo-8-thia-6-azapentacyclo[11.7.0.02,10.05,9.014,18]icosa-5(9),6,10-trien-7-yl]acetamide]
SK-MEL-28 (% inhibition) [1]: 16%
SK-MEL-25 (% inhibition) [2, 6]: 31%
SK-MEL-5 (% inhibition) [4]: 5%
